Test results as given in patent US6949571B2, “1,2-dihydropyridine compounds, process for preparation of the same and use thereof” (Eisai Co., Ltd., priority 2000, dated 2005).
Read-outs that look alike come from different tables or passages of the source.

Tested on: AMPA receptor
[1] = Table 1, primary culture of rat embryo cerebral cortex nerve cells, 2 μM AMPA, 1 μM MK-801
[2] = Table 3, primary culture of rat embryo cerebral cortex nerve cells, 2 μM AMPA, 1 μM MK-801
[3] = Table 2, suppression of AMPA-induced calcium influx into nerve cells
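Further: primary rat embryonic cortical neurons grown on an astrocyte layer in 96-well plates, used after at least 8 to 10 days in culture, Fura2-AM fluorescence ratio at 340/380 nm excitation.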

| IC50 [3] | Compound | IC50 [1] | further results |
| --- | --- | --- | --- |
| – | COc1ncc(-c2ccccn2)cc1-c1ccccc1C#N [Example 5, 3-(2-Cyanophenyl)-5-(2-pyridyl)-2-methoxypyridine] | 600 nM | – |
| – | CCOC(=O)C=Cc1sccc1-c1cc(-c2ccccn2)cn(-c2ccccc2)c1=O [Example 398, 3-[(2-Ethoxycarbonyl)vinylthiophen-3-yl]-5-(2-pyridyl)-1-phenyl-1,2-dihydropyridin-2-one] | – | IC50 [2]: 200 nM |
| – | O=c1c(-c2ccsc2-c2cnco2)cc(-c2ccccn2)cn1-c1ccccc1 [Example 393, 3-[2-(5-Oxazolyl)thiophen-3-yl]-1-phenyl-5-(2-pyridyl)-1,2-dihydropyridin-2-one] | – | IC50 [2]: 300 nM |
| 4200 nM | O=C1C=C(c2cc(-c3ccccn3)cn(-c3ccccc3)c2=O)CCC1 [Example 268, 3-(3-Oxo-1-cyclohexen-1-yl)-1-phenyl-5-(2-pyridyl)-1,2-dihydropyridin-2-one] | – | – |
| 3300 nM | O=c1c(Nc2ccccc2)cc(-c2ccccn2)cn1-c1ccccc1 [Example 174, 3-Phenylamino-5-(2-pyridyl)-1-phenyl-1,2-dihydropyridin-2-one] | – | – |
| – | N#Cc1ccccc1-c1cc(-c2ccccc2C#N)c(=O)n(-c2ccccc2)c1 [Example 36, 3-(2-Cyanophenyl)-5-(2-cyanophenyl)-1-phenyl-1,2-dihydropyridin-2-one] | 1100 nM | – |
| – | COc1ccc(-n2cc(-c3ccccn3)cc(-c3ccccc3C#N)c2=O)cn1 [Example 109, 3-(2-Cyanophenyl)-5-(2-pyridyl)-1-(2-methoxypyridyn-5-yl)-1,2-dihydropyridin-2-one] | 10 nM | – |
| 600 nM | O=c1c(-c2nc3ccccc3[nH]2)cc(-c2ccccn2)cn1-c1ccccc1 [Example 190, 3-(1H-Benzimidazol-2-yl)-5-(2-pyridyl)-1-phenyl-1,2-dihydropyridin-2-one] | – | – |
| 2000 nM | O=c1c(C23CC4CC(CC(C4)C2)C3)cc(-c2ccccn2)cn1-c1ccccc1 [Example 178, 3-(1-Adamantyl)-5-(2-pyridyl)-1-phenyl-1,2-dihydropyridin-2-one] | – | – |
| 6100 nM | O=c1c(C=Cc2ccccn2)cc(-c2ccccn2)cn1-c1ccccc1 [Example 187, 3-(2-Pyridylethenyl)-5-(2-pyridyl)-1-phenyl-1,2-dihydropyridin-2-one] | – | – |
| 2400 nM | N#Cc1ccccc1-c1cc(-c2ncccc2N)cn(-c2ccccc2)c1=O [Example 216, 5-(3-Aminopyridin-2-yl)-3-(2-cyanophenyl)-1-phenyl-1,2-dihydropyridin-2-one] | – | – |
| 500 nM | N#Cc1ccccc1-c1cc(-c2ccccn2)cn(C2=CCCN(Cc3ccccc3)C2)c1=O [Example 180, 3-(2-Cyanophenyl)-5-(2-pyridyl)-1-(1-benzyl-1,2,3,6-tetrahydropyridin-5-yl)-1,2-dihydropyridin-2-one] | – | – |
| 200 nM | N#Cc1ccccc1-c1cc(-c2nccs2)cn(-c2ccccc2)c1=O [Example 201, 3-(2-Cyanophenyl)-1-phenyl-5-(2-thiazoyl)-1,2-dihydropyridin-2-one] | – | – |
| 1200 nM | N#Cc1ccccc1-c1cc(-c2ccccn2)cn(-c2cccc(OCCN3CCOCC3)c2)c1=O [Example 245, 3-(2-Cyanophenyl)-1-[3-(morpholinoethoxy)phenyl]-5-(2-pyridyl)-1,2-dihydropyridin-2-one] | – | – |
| – | N#Cc1ccccc1-c1cc(-c2ccccn2)cn(-c2ccccc2C=O)c1=O [Example 101, 3-(2-Cyanophenyl)-5-(2-pyridyl)-1-(2-formylphenyl)-1,2-dihydropyridin-2-one] | 200 nM | – |
| – | O=c1c(-c2ccccc2Cl)cc(-c2ccccn2)cn1-c1ccc(O)cc1 [Example 18, 3-(2-Chlorophenyl)-5-(2-pyridyl)-1-(4-hydroxyphenyl)-1,2-dihydropyridin-2-one] | 20 nM | – |
| – | O=c1c(-c2ccsc2)cc(-c2ccccn2)cn1-c1cccnc1 [Example 133, 3-(Thiophen-3-yl)-5-(2-pyridyl)-1-(3-pyridyl)-1,2-dihydropyridin-2-one] | 300 nM | – |
| 3400 nM | CN(C)CCOc1ccc(-c2cc(-c3ccccn3)cn(-c3ccccc3)c2=O)cc1 [Example 248, 3-[4-(Dimethylaminoethoxy)phenyl]-1-phenyl-5-(2-pyridyl)-1,2-dihydropyridin-2-one] | – | – |
| – | CCCCNC(=O)Nc1ccc(-c2cc(-c3ccccn3)cn(-c3ccccc3)c2=O)cc1 [Example 308, 3-{4[N-(N′-butylureylenyl)phenyl]}-1-phenyl-5-(2-pyridyl)-1,2-dihydropyridin-2-one] | – | IC50 [2]: 1600 nM |
| – | O=c1c(-c2ccc(Cl)cc2)cc(-c2ccccn2)cn1-c1ccccc1 [Example 66, 3-(4-Chlorophenyl)-5-(2-pyridyl)-1-phenyl-1,2-dihydropyridin-2-one] | 2400 nM | – |
| – | N#Cc1ccccc1-c1cc(-c2cccc(N3CCOCC3)n2)cn(-c2ccccc2)c1=O [Example 302, 3-(2-Cyanophenyl)-5-(2-morpholinopyridin-6-yl)-1-phenyl-1,2-dihydropyridin-2-one] | – | IC50 [2]: 300 nM |
| 600 nM | O=c1c(-c2ccc(O)cc2)cc(-c2ccccn2)cn1-c1ccccc1 [Example 238, 3-(4-Hydroxyphenyl)-1-phenyl-5-(2-pyridyl)-1,2-dihydropyridin-2-one] | – | – |
| – | O=c1c(-c2ccccc2F)cc(-c2ccccn2)cn1-c1ccccc1 [Example 71, 3-(2-Fluorophenyl)-5-(2-pyridyl)-1-phenyl-1,2-dihydropyridin-2-one] | 50 nM | – |
| – | O=C(c1cc(-c2ccccc2)c(=O)n(-c2ccccc2)c1)c1ccccn1 [Example 395, 5-(2-Pyridinecarbonyl)-1-phenyl-3-phenyl-1,2-dihydropyridin-2-one] | – | IC50 [2]: 900 nM |
| – | N#Cc1ccccc1-c1cc(NC(=O)c2ccccn2)cn(-c2ccccc2)c1=O [Example 309, 3-(2-Cyanophenyl)-1-phenyl-5-(2-pyridincarbonyl)amino-1,2-dihydropyridin-2-one] | – | IC50 [2]: 4100 nM |
| – | COc1cccc(-c2cc(-c3ccccn3)cn(-c3ccccc3)c2=O)c1 [Example 69, 3-(3-Methoxyphenyl)-5-(2-pyridyl)-1-phenyl-1,2-dihydropyridin-2-one] | 900 nM | – |
| – | COc1cncc(-n2cc(-c3ccccn3)cc(-c3ccccc3C#N)c2=O)c1 [Example 118, 3-(2-Cyanophenyl)-5-(2-pyridyl)-1-(3-methoxypyridin-5-yl)-1,2-dihydropyridin-2-one] | 100 nM | – |
| – | O=c1c(-c2cccc(F)c2)cc(-c2ccccn2)cn1-c1ccccc1 [Example 72, 3-(3-Fluorophenyl)-5-(2-pyridyl)-1-phenyl-1,2-dihydropyridin-2-one] | 700 nM | – |
| 4300 nM | CC(=O)Nc1cccc(-c2cc(-c3ccccn3)cn(-c3ccccc3)c2=O)c1 [Example 232, 3-[3-(Acetylamino)phenyl]-1-phenyl-5-(2-pyridyl)-1,2-dihydropyridin-2-one] | – | – |

| Compound | IC50 [3] | IC50 [1] | further results |
| --- | --- | --- | --- |
| N#Cc1ccccc1-c1cc(-c2ccccn2)cn(-c2cccc3ccccc23)c1=O [Example 291, 3-(2-Cyanophenyl)-5-(2-pyridyl)-1-(1-naphthyl)-1,2-dihydropyridin-2-one] | 140 nM | – | – |
| O=c1c(-c2cccnc2F)cc(-c2ncccn2)cn1-c1cccnc1 [Example 263, 3-(2-Fuluoropyridin-3-yl)-1-(3-pyridyl)-5-(2-pyrimidinyl)-1,2-dihydropyridin-2-one] | 1000 nM | – | – |
| N#Cc1ccccc1-c1cc(-c2ccncn2)cn(-c2ccccc2)c1=O [Example 202, 3-(2-Cyanophenyl)-1-phenyl-5-(4-pyrimidinyl)-1,2-dihydropyridin-2-one] | 700 nM | – | – |
